# US20240016781A1, “TREATMENT OF KRAS MUTANT CANCERS” (MEI Pharma, Inc., priority 2020, published 2024)
# Read-outs that look alike come from different tables or passages of the source.
# Assays:
# MYC protein in AML cells = details: 3 hr; cited from earlier work
# [1] = PK of voruciclib, daily dosing continuously (Table 4); format: in vivo; details: human, plasma, oral; for Vd/F: read-out: Vz/F; for half-life: read-out: t½ (converted); for Tmax: median
# Description: Voruciclib half life is designated as t½ in the tables (expressed in hours).
# Voruciclib volume of distribution is designated as Vz/F (expressed in liters).
# [2] = 75 mg, Day 1, daily dosing continuously, mean
# [3] = 75 mg, Day 15, daily dosing continuously, mean
# [4] = 150 mg, Day 1, daily dosing continuously, mean
# [5] = 150 mg, Day 15, daily dosing continuously, n = 1
# [6] = 250 mg, Day 1, daily dosing continuously, mean
# [7] = 250 mg, Day 15, daily dosing continuously, mean
# [8] = 350 mg, Day 1, daily dosing continuously, mean
# [9] = 350 mg, Day 15, daily dosing continuously, mean
# [10] = 500 mg, Day 1, daily dosing continuously, mean
# [11] = 500 mg, Day 15, daily dosing continuously, mean
compound,measurement,setting,value
"CN1CC[C@@H](c2c(O)cc(O)c3c(=O)cc(-c4ccc(C(F)(F)F)cc4Cl)oc23)[C@@H]1CO [Voruciclib, (+)-trans-2-(2-Chloro-4-trifluoromethylphenyl)-5,7-dihydroxy-8-(2-hydroxymethyl-1-methylpyrrolidin-3-yl)-chromen-4-one]",MYC protein,MYC protein in AML cells,decrease in MYC protein
same,AUC(0-inf),[1]; [2],3420 ng·h/mL
same,Cmax,[1]; [2],125 ng/mL
same,AUC(0-t),"[1]; 75 mg, Day 1, daily dosing continuously, mean, read-out: AUC0-24",1730 ng·h/mL
same,AUC(0-t),"[1]; 75 mg, Day 1, daily dosing continuously, mean, read-out: AUC0-t",1730 ng·h/mL
same,Vd/F,[1]; [2],860 L
same,half-life,[1]; [2],21.8 h
same,Tmax,"[1]; 75 mg, Day 1, daily dosing continuously",4 h
same,AUC(0-inf),[1]; [3],27200 ng·h/mL
same,Cmax,[1]; [3],331 ng/mL
same,AUC(0-t),"[1]; 75 mg, Day 15, daily dosing continuously, mean, read-out: AUC0-24",5570 ng·h/mL
same,AUC(0-t),"[1]; 75 mg, Day 15, daily dosing continuously, mean, read-out: AUC0-t",5570 ng·h/mL
same,Vd/F,[1]; [3],982 L
same,half-life,[1]; [3],359 h
same,Tmax,"[1]; 75 mg, Day 15, daily dosing continuously",2 h
same,AUC(0-inf),[1]; [4],15600 ng·h/mL
same,Cmax,[1]; [4],258 ng/mL
same,AUC(0-t),"[1]; 150 mg, Day 1, daily dosing continuously, mean, read-out: AUC0-24",4850 ng·h/mL
same,AUC(0-t),"[1]; 150 mg, Day 1, daily dosing continuously, mean, read-out: AUC0-t",4850 ng·h/mL
same,Vd/F,[1]; [4],579 L
same,half-life,[1]; [4],39.6 h
same,Tmax,"[1]; 150 mg, Day 1, daily dosing continuously",6 h
same,Cmax,"[1]; 150 mg, Day 15, daily dosing continuously, mean",755 ng/mL
same,AUC(0-t),"[1]; 150 mg, Day 15, daily dosing continuously, mean, read-out: AUC0-24",16600 ng·h/mL
same,AUC(0-t),"[1]; 150 mg, Day 15, daily dosing continuously, mean, read-out: AUC0-t",16600 ng·h/mL
same,Tmax,"[1]; 150 mg, Day 15, daily dosing continuously",6 h
same,AUC(0-inf),[1]; [5],164000 ng·h/mL
same,Vd/F,[1]; [5],174 L
same,half-life,[1]; [5],132 h
same,AUC(0-inf),[1]; [6],16400 ng·h/mL
same,Cmax,[1]; [6],472 ng/mL
same,AUC(0-t),"[1]; 250 mg, Day 1, daily dosing continuously, mean, read-out: AUC0-24",6110 ng·h/mL
same,AUC(0-t),"[1]; 250 mg, Day 1, daily dosing continuously, mean, read-out: AUC0-t",6110 ng·h/mL
same,Vd/F,[1]; [6],766 L
same,half-life,[1]; [6],34.4 h
same,Tmax,"[1]; 250 mg, Day 1, daily dosing continuously",4 h
same,AUC(0-inf),[1]; [7],54500 ng·h/mL
same,Cmax,[1]; [7],1050 ng/mL
same,AUC(0-t),"[1]; 250 mg, Day 15, daily dosing continuously, mean, read-out: AUC0-24",18500 ng·h/mL
same,AUC(0-t),"[1]; 250 mg, Day 15, daily dosing continuously, mean, read-out: AUC0-t",18500 ng·h/mL
same,Vd/F,[1]; [7],259 L
same,half-life,[1]; [7],38.8 h
same,Tmax,"[1]; 250 mg, Day 15, daily dosing continuously",4 h
same,AUC(0-inf),[1]; [8],134000 ng·h/mL
same,Cmax,[1]; [8],623 ng/mL
same,AUC(0-t),"[1]; 350 mg, Day 1, daily dosing continuously, mean, read-out: AUC0-24",10400 ng·h/mL
same,AUC(0-t),"[1]; 350 mg, Day 1, daily dosing continuously, mean, read-out: AUC0-t",10400 ng·h/mL
same,Vd/F,[1]; [8],155 L
same,half-life,[1]; [8],129 h
same,Tmax,"[1]; 350 mg, Day 1, daily dosing continuously",6 h
same,AUC(0-inf),[1]; [9],164000 ng·h/mL
same,Cmax,[1]; [9],1490 ng/mL
same,AUC(0-t),"[1]; 350 mg, Day 15, daily dosing continuously, mean, read-out: AUC0-24",26700 ng·h/mL
same,AUC(0-t),"[1]; 350 mg, Day 15, daily dosing continuously, mean, read-out: AUC0-t",26700 ng·h/mL
same,Vd/F,[1]; [9],77.6 L
same,half-life,[1]; [9],72.5 h
same,Tmax,"[1]; 350 mg, Day 15, daily dosing continuously",4 h
same,AUC(0-inf),[1]; [10],41000 ng·h/mL
same,Cmax,[1]; [10],1140 ng/mL
same,AUC(0-t),"[1]; 500 mg, Day 1, daily dosing continuously, mean, read-out: AUC0-24",16400 ng·h/mL
same,AUC(0-t),"[1]; 500 mg, Day 1, daily dosing continuously, mean, read-out: AUC0-t",16400 ng·h/mL
same,Vd/F,[1]; [10],72.5 L
same,half-life,[1]; [10],24.8 h
same,Tmax,"[1]; 500 mg, Day 1, daily dosing continuously",6 h
same,AUC(0-inf),[1]; [11],108000 ng·h/mL
same,Cmax,[1]; [11],2250 ng/mL
same,AUC(0-t),"[1]; 500 mg, Day 15, daily dosing continuously, mean, read-out: AUC0-24",40500 ng·h/mL
same,AUC(0-t),"[1]; 500 mg, Day 15, daily dosing continuously, mean, read-out: AUC0-t",40500 ng·h/mL
same,Vd/F,[1]; [11],51 L
same,half-life,[1]; [11],42.4 h
same,Tmax,"[1]; 500 mg, Day 15, daily dosing continuously",2 h
